Data published in the supplement of paper PMC8617591.

What was measured:
[1] = test system: Mycobacterium tuberculosis Erdman (autoluminescent); test: total FIC90 (Loewe) at 90% inhibition, three-drug combination (log2); higher = more antagonistic
Procedure: (§1)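 DiaMOND equipotent three-drug combination dose responses (10 doses, 1.5- or 2-fold spacing, centred on IC90) against autoluminescent M. tuberculosis Erdman in 8 in vitro models. Read-out is OD600, or luminescence for the intracellular and dormancy models, normalised to untreated wells. Hill-fit Einf, AUC25 and GRinf are potency metrics; FIC50 and FIC90 are total Loewe fractional inhibitory concentrations as log2 (negative = synergy).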

[2] = test system: Mycobacterium tuberculosis Erdman (autoluminescent); test: Einf, fitted maximum growth inhibition of three-drug combination (fraction); higher = stronger maximal inhibition
Procedure: as §1

[3] = test system: Mycobacterium tuberculosis Erdman (autoluminescent); test: GRinf, maximum normalised growth rate inhibition (three-drug combination) (unitless (-1 to 1)); higher = less effect (negative = killing)
Procedure: as §1

[4] = test system: Mycobacterium tuberculosis Erdman (autoluminescent); test: AUC25, normalised area under dose response up to IC25 (three-drug combination) (fraction (0-1)); higher = more potent at low dose
Procedure: as §1

[5] = test system: Mycobacterium tuberculosis Erdman (autoluminescent); test: total FIC50 (Loewe) at 50% inhibition, three-drug combination (log2); higher = more antagonistic
Procedure: as §1

COc1nc2ccc(Br)cc2cc1[C@@H](c1ccccc1)[C@@](O)(CCN(C)C)c1cccc2ccccc12 [bedaquiline] + NC(=O)c1cnccn1 [pyrazinamide] + CO[C@H]1/C=C/O[C@@]2(C)Oc3c(C)c(O)c4c(O)c(c(/C=N/N5CCN(C)CC5)c(O)c4c3C2=O)NC(=O)/C(C)=C\C=C\[C@H](C)[C@H](O)[C@@H](C)[C@@H](O)[C@@H](C)[C@H](OC(C)=O)[C@@H]1C [rifampicin]
Conditions | AUC25, [4] | Einf, [2] | GRinf, [3] | total FIC50, [5] | total FIC90, [1]
in vitro model: acidic pH 5.7, time point: constant (~7 days, model-specific) | 0.0834 | 0.901 | -0.315 | 0.337 | –
in vitro model: acidic pH 5.7, time point: terminal (~4-5 doublings, model-specific) | 0.0711 | 0.981 | -0.241 | 0.285 | -0.207
in vitro model: intracellular J774, time point: constant = terminal | – | 0.999 | -0.44 | – | 0.24

Conditions | AUC25, [4] | Einf, [2] | GRinf, [3] | total FIC50, [5] | total FIC90, [1]
in vitro model: butyrate, time point: constant (~7 days, model-specific) | 0.118 | 0.967 | -0.45 | 0.454 | 0.281
in vitro model: butyrate, time point: terminal (~4-5 doublings, model-specific) | 0.11 | 0.993 | -0.729 | 0.529 | 0.948
in vitro model: cholesterol 0.05 mM, time point: constant (~7 days, model-specific) | 0.102 | 0.776 | -0.214 | – | –
in vitro model: cholesterol 0.05 mM, time point: terminal (~4-5 doublings, model-specific) | 0.0832 | 0.929 | -0.267 | 1.1 | –
in vitro model: cholesterol-high 0.2 mM, time point: constant (~7 days, model-specific) | 0.0476 | 0.933 | -0.352 | 0.834 | –
in vitro model: cholesterol-high 0.2 mM, time point: terminal (~4-5 doublings, model-specific) | 0.0598 | 1 | -0.624 | 1.34 | 0.74
in vitro model: dormancy (butyrate + nitrate, low O2), time point: constant (~7 days, model-specific) | 0.0673 | 0.914 | 0.179 | -0.454 | -0.722
in vitro model: dormancy (butyrate + nitrate, low O2), time point: terminal (~4-5 doublings, model-specific) | 0.0465 | 0.984 | -0.139 | -0.149 | -0.476
in vitro model: standard 7H9 glycerol, time point: constant = terminal | 0.0766 | 0.913 | 0.0332 | 0.401 | –
in vitro model: valerate, time point: constant (~7 days, model-specific) | 0.0558 | 0.839 | 0.0298 | 0.905 | –
in vitro model: valerate, time point: terminal (~4-5 doublings, model-specific) | 0.032 | 0.935 | 0.00447 | 0.857 | 0.584

CC(C)/N=c1\cc2n(-c3ccc(Cl)cc3)c3ccccc3nc-2cc1Nc1ccc(Cl)cc1 [clofazimine] + CC(=O)NC[C@H]1CN(c2ccc(N3CCOCC3)c(F)c2)C(=O)O1 [linezolid] + NC(=O)c1cnccn1 [pyrazinamide]
Conditions | AUC25, [4] | Einf, [2] | GRinf, [3] | total FIC50, [5] | total FIC90, [1]
in vitro model: acidic pH 5.7, time point: constant (~7 days, model-specific) | 0.115 | 0.851 | -0.367 | -0.389 | –
in vitro model: acidic pH 5.7, time point: terminal (~4-5 doublings, model-specific) | 0.099 | 0.964 | -0.333 | 0.309 | -1.87
in vitro model: intracellular J774, time point: constant = terminal | – | 0.935 | -0.0585 | – | 0.0502

Conditions | AUC25, [4] | Einf, [2] | GRinf, [3] | total FIC50, [5] | total FIC90, [1]
in vitro model: butyrate, time point: constant (~7 days, model-specific) | 0.121 | 0.931 | -0.0985 | -0.132 | 1.31
in vitro model: butyrate, time point: terminal (~4-5 doublings, model-specific) | 0.08 | 0.95 | -0.0789 | -0.0376 | 0.0936
in vitro model: cholesterol 0.05 mM, time point: constant (~7 days, model-specific) | 0.131 | 0.722 | -0.114 | – | –
in vitro model: cholesterol 0.05 mM, time point: terminal (~4-5 doublings, model-specific) | 0.142 | 0.927 | -0.198 | 0.348 | –
in vitro model: cholesterol-high 0.2 mM, time point: constant (~7 days, model-specific) | 0.137 | 0.934 | -0.71 | 0.27 | –
in vitro model: cholesterol-high 0.2 mM, time point: terminal (~4-5 doublings, model-specific) | 0.128 | 1 | -0.983 | -0.375 | 0.282
in vitro model: dormancy (butyrate + nitrate, low O2), time point: constant (~7 days, model-specific) | 0.104 | 0.958 | -0.0605 | 0.947 | 1.54
in vitro model: dormancy (butyrate + nitrate, low O2), time point: terminal (~4-5 doublings, model-specific) | 0.0414 | 0.986 | -0.449 | 0.584 | 0.337
in vitro model: standard 7H9 glycerol, time point: constant = terminal | 0.123 | 0.939 | -0.131 | 0.477 | –
in vitro model: valerate, time point: constant (~7 days, model-specific) | 0.119 | 0.8 | 0.241 | 0.731 | –
in vitro model: valerate, time point: terminal (~4-5 doublings, model-specific) | 0.0593 | 0.874 | 0.183 | 0.277 | -1.05

COc1nc2ccc(Br)cc2cc1[C@@H](c1ccccc1)[C@@](O)(CCN(C)C)c1cccc2ccccc12 [bedaquiline] + NNC(=O)c1ccncc1 [isoniazid] + NC(=O)c1cnccn1 [pyrazinamide]
Conditions | AUC25, [4] | Einf, [2] | GRinf, [3] | total FIC50, [5] | total FIC90, [1]
in vitro model: acidic pH 5.7, time point: constant (~7 days, model-specific) | 0.0904 | 0.873 | -0.529 | 0.0123 | –
in vitro model: acidic pH 5.7, time point: terminal (~4-5 doublings, model-specific) | 0.0797 | 0.981 | -0.413 | 0.0722 | 0.15
in vitro model: intracellular J774, time point: constant = terminal | – | 0.987 | -0.53 | – | 0.651

Conditions | AUC25, [4] | Einf, [2] | GRinf, [3] | total FIC50, [5] | total FIC90, [1]
in vitro model: butyrate, time point: constant (~7 days, model-specific) | 0.0809 | 0.949 | -0.109 | 0.406 | 0.726
in vitro model: butyrate, time point: terminal (~4-5 doublings, model-specific) | 0.0598 | 0.978 | -0.0731 | 0.373 | 0.404
in vitro model: cholesterol 0.05 mM, time point: constant (~7 days, model-specific) | 0.103 | 0.726 | -0.236 | – | –
in vitro model: cholesterol 0.05 mM, time point: terminal (~4-5 doublings, model-specific) | 0.102 | 0.935 | -0.279 | 0.232 | –
in vitro model: cholesterol-high 0.2 mM, time point: constant (~7 days, model-specific) | 0.0921 | 0.995 | -0.637 | 0.548 | –
in vitro model: cholesterol-high 0.2 mM, time point: terminal (~4-5 doublings, model-specific) | 0.068 | 1 | -0.598 | 0.805 | 0.505
in vitro model: dormancy (butyrate + nitrate, low O2), time point: constant (~7 days, model-specific) | 0.0789 | 0.922 | 0.125 | -0.318 | -0.645
in vitro model: dormancy (butyrate + nitrate, low O2), time point: terminal (~4-5 doublings, model-specific) | 0.0524 | 0.992 | -0.123 | 0.063 | -0.625
in vitro model: standard 7H9 glycerol, time point: constant = terminal | 0.0575 | 0.957 | -0.0565 | 0.231 | –
in vitro model: valerate, time point: constant (~7 days, model-specific) | 0.0999 | 0.847 | 0.0396 | 0.527 | –
in vitro model: valerate, time point: terminal (~4-5 doublings, model-specific) | 0.0629 | 0.953 | -0.0326 | 0.64 | 1.01
